Measurements from US20250034139A1, “AMINE COMPOUNDS HAVING ANTI-INFLAMMATORY, ANTIFUNGAL, ANTIPARASITIC, AND ANTICANCER ACTIVITY” (PHARMA CINQ, LLC, priority 2013, published 2025).
≈ marks a conversion by molar mass, not a printed value. Like-named read-outs stand apart in the source and are kept apart here.

How the values were obtained:
Candida glabrata strains = assay: Example N: MIC and MFC (CLSI) against Candida glabrata; assay type: cell-based; conditions: Nakaseomyces glabratus; for MIC: read-out: MIC 100%; for MFC: range over Candida glabrata strains, in 48 hr
Protocol: (§1) The objective of this study was to determine the antifungal activity of eight experimental compounds against a representative panel of fungal isolates, including Candida albicans, C. glabrata, Cryptococcus neoformans, Trichophyton rubrum, Aspergillus fumigatus, and Rhizopus spp. Antifungal activity was measured by minimum inhibitory concentration (MIC) and minimum fungicidal concentration (MFC).
(§2) Three recent clinical strains of each species, taken from the culture collection at the Center for Medical Mycology, Case Western University, were tested.
(§3) Compounds in powder form were dissolved in DMSO. Serial dilutions of each compound were then prepared in RPMI-1640 in a range of […].
(§4) MIC testing was performed according to the CLSI M27-A3 and M38-A2 standards for the susceptibility testing of yeasts and filamentous fungi, respectively (1, 2). Test isolates were subcultured from frozen slants onto potato dextrose agar plates (Trichophyton rubrum was subcultured onto oatmeal plates for conidia production) and checked for purity. Inocula were then prepared in RPMI-1640 (YNB for Cryptococcus) to a concentration of 0.5-2.5×10^3 colony-forming units (CFU)/ml or 0.4-5×10^4 conidia/ml for yeast and filamentous fungi, respectively.
(§5) MFC determinations were performed according to the modifications previously described by Canton et al. and Ghannoum and Isham. (3, 4) Specifically, the total contents of each clear well from the MIC assay were subcultured onto potato dextrose agar. To avoid antifungal carryover, the aliquots were allowed to soak into the agar and then were streaked for isolation once dry, thus removing the cells from the drug source.

Rhizopus strains = assay: Example N: MIC and MFC (CLSI) against Rhizopus; assay type: cell-based, Rhizopus spp.; conditions: for MIC50 / MIC: Rhizopus; for MIC: read-out: MIC 100%; for MFC: range over Rhizopus strains, in 48 hr
Protocol: as §1, §2, §3, §4, §5

[1] = tested on: imiquimod-induced dermatitis; conditions: for Ear thickness, Mean ± SEM: imiquimod-treated mice; for PASI Score, Mean ± SEM: scale 0-12
Protocol: Topical imiquimod (IMQ), a toll-like receptor agonist, has been established as a model of Inflammatory skin diseases including psoriasis and atopic dermatitis. Dermal inflammatory changes and gene expression in mice treated with topical imiquimod mimic human psoriasis and dermatitis (van der Fits et al., 2009; Swindell et al., 2011). The effect of a set of compounds of the invention were tested in a mouse model of imiquimod-induced dermatitis, with topical tacrolimus and dexamethasone as comparators for assessing safety and efficacy relative to standard agents used to treat dermatitis in humans.
Commercial 0.1% tacrolimus ointment (ProTopic™[…]) was also used as an active comparator. Petrolatum containing 10% ethanol was used as a control treatment.
Female Balb/C mice (8 weeks old) were randomized and divided into groups of 5 animals each. Polyethylene collars were affixed to the mice to prevent them from easily scratching their ears. 5% imiquimod was applied to both ears of each mouse (20 microliters per ear) daily for 5 days, and then every other day for the full duration of the study. […] On day 7 after initiation of imiquimod, treatment with topical agents was started. Both ears of each mouse were treated with test ointments, with one compound per mouse.
Ear thickness and PASI assessments (Psoriasis Area and Severity Index, a standard psoriasis scoring system) were recorded twice per week throughout the study. The PASI score comprises the sum of evaluations of swelling, erythema and scaling on scales from 0 to 4; the maximum PASI score is 12, and the minimum, in unaffected skin, is 0).

[2] = tested on: Cryptococcus neoformans (serotype A); assay: Example L: Cryptococcus neoformans (serotype A) growth inhibition; assay type: cell-based; conditions: Cryptococcus neoformans; for MIC: read-out: MIC, uM (concentration for maximum - 99% of inhibition)
Protocol: Cryptococcus neoformans (serotype A) were plated in 96 well plates with 144 μl/well of 5×10e5 CFU/ml in YPD growth medium. Diluted compounds were then added to each well with concentration ranged from 0.05 to 10 μM as final concentration in duplicates. The plates were inoculated at 30° C. Two readings of OD at 600 nm were measured after 18 hr and […] treatments.
C12-imidazol had relative weak activity against Cryptococcus serotype A at low concentration. Data plotted was based on 26 hour reading because 18 hour reading was too low.
• 1. Pick a single colony of Cryptococcus from the Sabouraud Dextrose agar plate using the inoculum loop and inoculate into a 125 ml flask containing 25 ml of YPD growth medium • 2. Incubate at 30° C. with shaking at 220 rpm for 24 hours with loosen lid to allow air in and facilitates growth. • 3. Examine an aliquot of the culture under a microscope for yeast cell morphology and lack of bacterial contamination. • 4. Dilute the overnight culture with YPD medium at 1:100 dilution and count the number of cells as 8×10^6 cfu/ml. • 5. Make a final concentration of cells suspension at 5×10^5 cfu/ml in YPD medium after the stock culture had been stored at 4° C. for 3 days. • 6. Plate 144 μl/well of 5×10^5 cfu/ml cell suspension on 96-well plates. Part-II: Cryptococcus Growth Inhibition Testing with Compounds • 1. From 10 mM DMSO stock solutions, make serial dilutions of compounds to 0.0013, 0.0025, 0.0125, 0.025, 0.05, 0.125 and 0.25 mM solution • 2. Add 6 ul each of diluted compound solutions per well in duplicates. The final concentrations were 0, 0.05, 0.1, 0.5, 1.0, 2.0, 5.0 and 10 micromolar. • 3. Incubated all plates at 30° C. overnight with 175 rpm shaking. • 4. Read absorbance at OD600 after 18 and 26 hours for each plate. • 5. Calculated the % inhibition and IC50 of each compound against the untreated cell.

[3] = tested on: Trichophyton rubrum strains; assay: Example N: MIC and MFC (CLSI) against Trichophyton rubrum; assay type: cell-based; conditions: for MIC: read-out: MIC 100%, Range, incubated for 96 hrs, three clinical strains; for MFC: three clinical strains
Protocol: as §1, §2, §3, §4, §5

THP-1 cells = assay: Example C: compound screen, viable THP-1 cell count after 5 hours +/- LPS; assay type: cell-based, Human; conditions: for ability to inactivate pro-inflammatory THP-1 cells, in words (relative to benchmark AC): LPS-treated THP-1 cells
Source text: Background: THP-1 is a human acute myeloid leukemia (AML) cell line that can be induced into a macrophage-like cell with vitamin-D3 (vit-D3). In the macrophage, LPS (lipopolysaccharide; endotoxin) stimulation of toll-like receptor 4 (TLR-4) leads to NF-κB activation and secretion of inflammatory cytokines but also the priming of programmed death pathways through RIP and Caspase 8. The balance of this complex regulatory network is dependent on highly specific kinases, enzymes that require ATP. Disruption of either cytosolic pH or ATP availability/energy level uncouples this control network and the can macrophage shift away from production of inflammatory cytokines towards a programmed death event, which has the net effect of limiting inflammatory damage.

[4] = topical ointment 0.06% active drug (dexamethasone 0.03%, tacrolimus 0.1%)
[5] = read-out: IC50, uM (concentration for 50% of inhibition), OD of 26 hour reading, 30° C., XLfit
[6] = OD of 26 hour reading, 30° C., XLfit

| D BW (g) ([1]; mouse, in vivo) | IC50 [2, 5] [µM] | MIC [2, 6] [µM] | Structure (SMILES) | MIC50 (Candida glabrata strains; 24 h) [µg/mL] | MIC (Candida glabrata strains; 24 h) [µg/mL] | MIC50 (Candida glabrata strains; 48 h) [µg/mL] | MIC (Candida glabrata strains; 48 h) [µg/mL] | MFC (Candida glabrata strains) [µg/mL] | MIC50 (Rhizopus strains; 24 h) [µg/mL] | MIC (Rhizopus strains; 24 h) [µg/mL] | MIC50 (Rhizopus strains; 48 h) [µg/mL] | MIC (Rhizopus strains; 48 h) [µg/mL] | MFC (Rhizopus strains) [µg/mL] | Ear thickness, Mean ± SEM [1, 4] | PASI Score, Mean ± SEM [1, 4] | MIC [3] [µg/mL] | MFC [3] [µg/mL] | Reduction in viable THP-1 cell count (percent change) from 0 hours, Mean ± SE (THP-1 cells; Compound (0.1 μM), No LPS) [%] | Reduction in viable THP-1 cell count (percent change) from 0 hours, Mean ± SE (THP-1 cells; Compound (0.1 μM), Plus LPS) [%] | Reduction in viable THP-1 cell count (percent change) from 0 hours, Mean ± SE (THP-1 cells; Compound (1.0 μM), No LPS) [%] | also measured |
| --- | --- | --- | --- | --- | --- | --- | --- | --- | --- | --- | --- | --- | --- | --- | --- | --- | --- | --- | --- | --- | --- |
| +0.4 g | 0.54 | 14.7 (≈ 5.59 µg/mL) | COc1ccc(OCCCCCCCCNc2ncnc3ccccc23)cc1 [AE, N-[8-(4-Methoxyphenoxy)octyl]quinazolin-4-amine] | 4 (≈ 10.5 µM) | 4 (≈ 10.5 µM) | 4 to 8 (≈ 10.5 to 21.1 µM) | 4 to 8 (≈ 10.5 to 21.1 µM) | 16 to 64 (≈ 42.2 to 169 µM) | < 0.12 | 1 to 2 (≈ 2.64 to 5.27 µM) | 1 to 2 (≈ 2.64 to 5.27 µM) | 1 to 4 (≈ 2.64 to 10.5 µM) | 64 (≈ 169 µM) | 0.846 ± 0.023 | 11.550 ± 0.281 | 4 to 16 (≈ 10.5 to 42.2 µM) | 4 to 16 (≈ 10.5 to 42.2 µM) | – | – | – | MIC at 50% inhibition (Rhizopus strains; 24 hrs): < 0.12 µg/mL; Body Weight (mean ± SEM), Final ([1]; mouse, in vivo): 21.3 ± 0.4 g; Body Weight (mean ± SEM), Initial ([1]; mouse, in vivo): 20.9 ± 0.5 g |
| +0.4 g | – | – | c1ccc(Oc2cccc(CNc3ccnc4ccccc34)c2)cc1 [AF, N-(3-Phenoxybenzyl)quinolin-4-amine] | – | – | – | – | – | – | – | – | – | – | 0.355 ± 0.005 | 3.575 ± 0.158 | – | – | −8.99 ± 2.00 | −27.32 ± 4.69 | −6.02 ± 2.31 | Ear thickness, Mean ± SEM ([1]; topical ointment AF 0.6%): 0.390 ± 0.008; D BW ([1]; mouse, in vivo): -0.4 g; Hair growth on the imiquimod-affected head area, in words ([1]; mouse, in vivo): hair growth was maintained; PASI Score, Mean ± SEM ([1]; topical ointment AF 0.6%): 4.875 ± 0.155; Reduction in viable THP-1 cell count (percent change) from 0 hours, Mean ± SE (THP-1 cells; Compound (1.0 μM), Plus LPS): −44.82 ± 2.46%; ability to inactivate pro-inflammatory THP-1 cells, in words (relative to benchmark AC) (THP-1 cells): higher activity than the active benchmark compound AC |
| – | 0.25 | 19.5 (≈ 6.54 µg/mL) | CCCCCCOc1cccc(CNc2ncnc3ccccc23)c1 [AK, N-[3-(Hexyloxy)benzyl]quinazolin-4-amine] | – | – | – | – | – | – | – | – | – | – | – | – | – | – | – | – | – | – |

| Structure (SMILES) | D BW (g) ([1]; mouse, in vivo) | IC50 [2, 5] [µM] | MIC [2, 6] [µM] | MIC50 (Candida glabrata strains; 24 h) [µg/mL] | MIC (Candida glabrata strains; 24 h) [µg/mL] | MIC50 (Candida glabrata strains; 48 h) [µg/mL] | MIC (Candida glabrata strains; 48 h) [µg/mL] | MFC (Candida glabrata strains) [µg/mL] | MIC50 (Rhizopus strains; 24 h) [µg/mL] | MIC (Rhizopus strains; 24 h) [µg/mL] | MIC50 (Rhizopus strains; 48 h) [µg/mL] | MIC (Rhizopus strains; 48 h) [µg/mL] | MFC (Rhizopus strains) [µg/mL] | Ear thickness, Mean ± SEM [1, 4] | PASI Score, Mean ± SEM [1, 4] | MIC [3] [µg/mL] | MFC [3] [µg/mL] | Reduction in viable THP-1 cell count (percent change) from 0 hours, Mean ± SE (THP-1 cells; Compound (0.1 μM), No LPS) [%] | Reduction in viable THP-1 cell count (percent change) from 0 hours, Mean ± SE (THP-1 cells; Compound (0.1 μM), Plus LPS) [%] | Reduction in viable THP-1 cell count (percent change) from 0 hours, Mean ± SE (THP-1 cells; Compound (1.0 μM), No LPS) [%] | also measured |
| --- | --- | --- | --- | --- | --- | --- | --- | --- | --- | --- | --- | --- | --- | --- | --- | --- | --- | --- | --- | --- | --- |
| CCCCOCCCCCCCCCCNc1ccnc2ccccc12 [AM, N-(10-Butoxydecyl)quinolin-4-amine] | – | 1.57 | 10.5 (≈ 3.75 µg/mL) | 1 to 2 (≈ 2.8 to 5.61 µM) | 2 to 4 (≈ 5.61 to 11.2 µM) | 2 to 4 (≈ 5.61 to 11.2 µM) | 2 to 4 (≈ 5.61 to 11.2 µM) | 4 to 8 (≈ 11.2 to 22.4 µM) | 1 to 2 (≈ 2.8 to 5.61 µM) | 2 to 4 (≈ 5.61 to 11.2 µM) | 2 to 4 (≈ 5.61 to 11.2 µM) | 4 (≈ 11.2 µM) | 8 to 32 (≈ 22.4 to 89.7 µM) | – | – | 0.5 to 4 (≈ 1.4 to 11.2 µM) | 1 to 4 (≈ 2.8 to 11.2 µM) | −5.57 ± 2.67 | −19.80 ± 1.96 | −8.47 ± 3.31 | IC50 ([2]; Macrophage, direct inhibition, values of the earlier study (Table 25), read-out: IC50 value (μM) for inhibition of fungal growth, No macrophages): 1.57 µM; Reduction in viable THP-1 cell count (percent change) from 0 hours, Mean ± SE (THP-1 cells; Compound (1.0 μM), Plus LPS): −44.05 ± 1.38%; ability to inactivate pro-inflammatory THP-1 cells, in words (relative to benchmark AC) (THP-1 cells): higher activity than the active benchmark compound AC |
